{"source": "patent US7056339B2", "about": "“Drug delivery platform” (The Board of Trustees of the Leland Stanford Junior …, priority 2001, dated 2006)", "molecules": {"B1": {"name": "Fas ligand: pro-apoptotic factor Fas ligand (Oncogene Research) (protein, UniProt P48023 130-281, looked up)", "Tumor necrosis factor ligand …": "QIGHPSPPPEKKELRKVAHLTGKSNSRSMPLEWEDTYGIVLLSGVKYKKGGLVINETGLYFVYSKVYFRGQSCNNLPLSHKVYMRNSKYPQDLVMMEGKMMSYCTTGQMWARSSYLGAVFNLTSADHLYVNVSELSLVNFEESQTFFGLYKL"}}, "key": {"[1]": {"test_system": "rabbit infra-renal abdominal aorta, in-stent plaque", "test": "Morphological analysis of intima/media ratios 28 days after in vivo stent implantation", "parameters": "species or system New Zealand White rabbits", "details": "28 days after stent implantation, mean ± SE", "experimental": "Age-matched adult male New Zealand White rabbits weighing 3.8–4.2 kg were used in accordance to NIH and institutional guidelines (n=6 animals per group). Under general anesthesia, an arteriotomy at the femoral artery was performed and a 5 Fr introducing sheath was placed. Under fluoroscopic guidance, aseptically prepared channeled stents filled with blank or angiostatin microspheres were deployed in the infra-renal abdominal aorta. Stents were post-dilated at 8 atm with a 5 mm angioplasty balloon (Jupiter, Cordis, Miami, Fla.) to a final lumen size of 125% above the baseline with care taken to ensure that […] were present within the stent segment. Pre- and post-deployment digital subtraction angiograms were recorded for the blank procedural control and angiostatin treatment groups. The rabbits were fed a 0.25% cholesterol diet after the intervention. Early 7 day follow up (n=3 per group) or late 28 day follow-up (n=3 per group) animals underwent total-body perfusion-fixation as previously described with immediate excision of the aortic segment containing stent. The 7 day aortic specimens were excised longitudinally and stents were removed. The resulting aortic segments were divided into two equal subsegments. One subsegment of each underwent fixation in 10% neutral buffered formalin and embedded in paraffin for light microscopic and morphologic analysis. The remaining subsegment of each specimen was snap frozen for molecular assay. The 28 days aortic specimens were fixed in 10% neutral buffered formalin and were embedded in PolyBed (Polysciences, Warrington, Pa.) for light microscopic and morphologic analysis.\nThe seven day analysis consisted of thick (5 μm) cross sections of the aortic wall were obtained from the paraffin-embedded specimens (n=9 sections per group). An elastic von Gieson-Masson trichrome or Elastica van Gieson-Hematoxylin double stain was performed for light microscopic analysis. For the 28 day specimen analysis (n=3 animals per group), each plastic-embedded aorta with stents was cut into five pieces longitudinally equal lengths. These pieces were stained by modified Verhoff elastic staining. Five cross sectional images of the stained aorta were obtained (n=15 sections per group) from one side of plastic pieces. […] Using Image Pro Plus software (Media Cybernetics, Silver Spring, Md.), the cross-sectional area of the intima and the media were determined by blinded observers. The ratio of intima area to media area subsequently tabulated for each, with the results presented as Table 2. Mean, standard error, and significance were determined."}, "[2]": {"test_system": "rabbit infra-renal abdominal aorta, in-stent plaque", "test": "Local plaque stability parameters: macrophage infiltrate and endothelial density (CD31), 7 days", "format": "in vivo, New Zealand White rabbits", "details": "7 days after stent implantation, stents releasing angiostatin, mean ± SE", "experimental": "Age-matched adult male New Zealand White rabbits weighing 3.8–4.2 kg were used in accordance to NIH and institutional guidelines (n=6 animals per group). Under general anesthesia, an arteriotomy at the femoral artery was performed and a 5 Fr introducing sheath was placed. Under fluoroscopic guidance, aseptically prepared channeled stents filled with blank or angiostatin microspheres were deployed in the infra-renal abdominal aorta. Stents were post-dilated at 8 atm with a 5 mm angioplasty balloon (Jupiter, Cordis, Miami, Fla.) to a final lumen size of 125% above the baseline with care taken to ensure that […] were present within the stent segment. Pre- and post-deployment digital subtraction angiograms were recorded for the blank procedural control and angiostatin treatment groups. The rabbits were fed a 0.25% cholesterol diet after the intervention. […]\nCross sections at the 7 day time point evaluated above were obtained (two per segment) from each vessel and incubated with a primary monoclonal antibody to rabbit macrophage (clone RAM-11, 1/800 dilution, DAKO, Carpinteria, Calif.). The number of positive cells per cross section was counted by a blinded observer. […] Mean and standard error were tabulated for each group with significance determined as before and p values as reported."}}, "data": [{"molecule": "alpha-1-antitrypsin [AAT]", "values": [{"measurement": "Intima to media ratio", "setting": "[1]; stents releasing an elastase inhibitor (40 mg alpha-1-antitrypsin loaded), P = 0.0001 vs. controls", "result": "1.322 ± 0.060"}]}, {"molecule": "angiostatin", "values": [{"measurement": "Intima to media ratio", "setting": "[1]; stents releasing angiostatin (2.0 mg loaded in microspheres), P = 0.003 vs. controls", "result": "1.610 ± 0.050"}, {"measurement": "Macrophages (number of cross-sectional macrophages)", "setting": "[2]", "result": "34.889 ± 3.948 P = 0.0011 cells per cross section"}, {"measurement": "CD31 (number of plaque microvessels)", "setting": "[2]; P < 0.05 vs. controls", "result": "0.111 ± 0.111"}]}, {"molecule": "FGF: acidic FGF (Calbiochem) with endotoxin-free heparin as a stabilizer", "values": [{"measurement": "Intima to media ratio", "setting": "[1]; stents releasing acidic FGF (200 ng with 1280 units heparin as stabilizer), P = 0.004 vs. controls", "result": "1.634 ± 0.051"}]}, {"molecule": "TGFβ1: transforming growth factor β1 (Oncogene Research)", "values": [{"measurement": "Intima to media ratio", "setting": "[1]; stents releasing TGFβ1 (2.0 μg loaded), P = 0.004 vs. controls", "result": "1.803 ± 0.053"}]}, {"molecule": "B1", "values": [{"measurement": "Intima to media ratio", "setting": "[1]; stents releasing Fas Ligand (10 μg loaded), P < 0.05 vs. controls", "result": "1.356 ± 0.053"}]}]}
